Source: patent US9547001B2, “Antibody specific for trans-resveratrol and use thereof” (IP Science Limited, priority 2011, dated 2017)
Several values for one entry are separate records, joined by “and”; a condition that tells them apart may be missing. Identical values can stand only once.

Assays:
Format in all cases: in vivo
[1] = HPLC-MS measurement of tRV in human serum after 100 mg tRV capsule (nutraceutical study)
Procedure: (§1) The group of 5 volunteers comprised of 2 female and 3 male clinically healthy Caucasian persons, age between 23 and 35 years.
(§2) They were asked, before commencing this experiment, to go for 3-4 days “wash-out”, when consumption of any grape, wine, peanut, chocolate and other products which might contain them.
(§3) In the morning of the experiment, one hour after light breakfast, volunteers were given 1 gelatine capsule containing 100 mg of tRV.
(§4) Blood samples were taken from their median cubital or cephalic veins at the baseline point. Then, after administration of tRV, their blood was taken again at the following time points: 30 minutes, 1 hour, 2, 3, 4, 6 and 8 hours.
(§5) After taking blood its serum was separated, aliquoted and stored at −80° C. for further testing.

[2] = anti-tRV ELISA measurement of tRV in human serum after 100 mg tRV capsule (nutraceutical study)
Procedure: (§6) 2 ml of ethyl acetate was added to 0.5 ml of serum sample, then mixed on a vortex for 3 minutes, followed by centrifugation for 2 minutes at 500 r/min. The upper layer of ethyl acetate was transferred into a new tube. To the remaining lower water fraction a second portion of 2 ml ethyl acetate was added and the extraction procedure was repeated. The new ethyl acetate fraction was added to the old one, giving a total volume of 4 ml, which was then dried by air flow at 60° C., using a Reacti-Therm™III, Thermo scientific, USA.[…]. 40 μl of ethanol was then added and mixed on vortex, then 160 μl of PBS with 0.5% BSA was added and mixed again. This final solution was used for the analysis described below.
RV-BSA was pre-absorbed on microplate wells in 0.1M carbonate buffer, pH=9.5 (at a concentration of 5 μg/ml) overnight at 4° C. After washing four times the PBST plate was blocked with PBS contacting 1% of Top Block (<<Yuro>>, Switzerland).
For the calibrating curve different concentrations of tRV were added into the wells. The stock solution used was 1 mg/ml of tRV diluted in PBST with 0.5% BSA and 20% ethanol. 50 μl of each serum extract to be tested were added to parallel wells. After which 50 μl of the conjugate of HRP with monoclonal anti-tRV antibodies was added to all the wells. The content of the wells was mixed using a shaker for 1 minute and then the plate was then incubated for 1 hour at +37° C.
(§7) The plate was washed out four times with PBST, and then a chromogeninc substrate was added, tetramethylbenzidine+H2O2. After stopping the reaction with 1M H2SO4, optic density was read at λ450 nm, Multiscan EX (<<Thermo>>, USA).
(§8) Inhibition by free tRV of the binding of serum antibodies with immobolised RV-BSA (Kin) was calculated according to the following formula: Kin=100−(A450D/A450C−)×100, where: • A450D is the optic density in samples with free tRV (testing serum or samples from the calibrating curve), • A450 C is the an optic density without free tRV.
as §1, §2, §3, §4, §5

[3] = HPLC-MS measurement of tRV in human serum after 1 mg tRV in 200 ml red wine (wine study); conditions: sum of 1 h + 2 h + 4 h + 6 h + 8 h, one value per volunteer
Procedure: The same volunteers also participated in a wine study. The same “wash out” period was used, and the same timing of the experiment was applied. Instead of taking a capsule of tRV each of the volunteers consumed 200 ml of red wine, which was selected on a basis that it would contain 1 mg of tRV in this volume. The rest of the Protocol employed was the same as above.
After taking blood, serum was separated, aliquoted and stored at −80° C. for further testing.

[4] = anti-tRV ELISA measurement of tRV in human serum after 1 mg tRV in 200 ml red wine (wine study); conditions: sum of 1 h + 2 h + 4 h + 6 h + 8 h, one value per volunteer
Procedure: as §6
RV-BSA was pre-absorbed on microplate wells in 0.1M carbonate buffer, pH=9.5 (at a concentration of 5 μg/ml) overnight at 4° C. […]
as §7
as §8, with “tRV. […]” for “tRV.”

[5] = 1 h after 100 mg tRV, volunteers 1 and 2
[6] = 2 h after 100 mg tRV, volunteers 1 and 2
[7] = human serum, 100 mg tRV dietary supplement, sum of 30 min + 1 h + 2 h + 3 h + 4 h + 6 h + 8 h, one value per volunteer
[8] = human, serum, oral, 100 mg, 1 h after 100 mg tRV, volunteers 1 and 2
[9] = human, serum, oral, 100 mg, 2 h after 100 mg tRV, volunteers 1 and 2

Oc1ccc(/C=C/c2cc(O)cc(O)c2)cc1 [tRV, trans-Resveratrol]
Concentration of tRV in serum, HPLC-MS [1, 5]: 97 ng/mL | Concentration of tRV in serum, HPLC-MS [1, 6]: 21 ng/mL | Concentration of tRV in serum as a sum of 7 separate measurements, HPLC-MS [1, 7]: 98 ng/mL and 139 ng/mL and 79 ng/mL and 37 ng/mL and 107 ng/mL | concentration at 1 h [1, 8]: 65 ng/mL | concentration at 2 h [1, 9]: 12 ng/mL | Concentration of tRV in serum, ELISA ([2]; 30 min after 100 mg tRV, volunteers 1 and 2): 90 ng/mL | Concentration of tRV in serum, ELISA [2, 5]: 490 ng/mL | Concentration of tRV in serum, ELISA [2, 6]: 255 ng/mL | Concentration of tRV in serum, ELISA ([2]; 3 h after 100 mg tRV, volunteers 1 and 2): 10 ng/mL | Concentration of tRV in serum, ELISA ([2]; 4 h after 100 mg tRV, volunteers 1 and 2): 195 ng/mL | Concentration of tRV in serum, ELISA ([2]; 6 h after 100 mg tRV, volunteers 1 and 2): 620 ng/mL | Concentration of tRV in serum as a sum of 7 separate measurements, ELISA [2, 7]: 1600 ng/mL and 1900 ng/mL and 1070 ng/mL and 795 ng/mL and 1412 ng/mL | concentration at 30 min ([2]; human, serum, oral, 100 mg, 30 min after 100 mg tRV, volunteers 1 and 2): 140 ng/mL | concentration at 1 h [2, 8]: 650 ng/mL | concentration at 2 h [2, 9]: 210 ng/mL | concentration at 3 h ([2]; human, serum, oral, 100 mg, 3 h after 100 mg tRV, volunteers 1 and 2): 20 ng/mL | concentration at 4 h ([2]; human, serum, oral, 100 mg, 4 h after 100 mg tRV, volunteers 1 and 2): 135 ng/mL | concentration at 6 h ([2]; human, serum, oral, 100 mg, 6 h after 100 mg tRV, volunteers 1 and 2): 420 ng/mL | Concentration of tRV in serum as a sum of 5 separate measurements, HPLC-MS [3]: 6 ng/ml and 572 ng/ml and 0 ng/ml (3×) | Concentration of tRV in serum as a sum of 5 separate measurements, ELISA [4]: 310 ng/mL and 850 ng/mL and 120 ng/mL and 460 ng/mL and 380 ng/mL
